# From patent publication US8536168B2 (Novartis AG, priority 2007, dated 2013)
# Read-outs that look alike come from different tables or passages of the source.
# Columns and labels:
# [1] = target: human Smoothened receptor (Homo sapiens, UniProt Q99835); assay: Smo binding assay, displacement of radio-labeled smoothened agonist, filter binding format (human); details: displacement of small molecule agonist of Smoothened, read-out: Human Smo bdg., IC50
# From the text: A Smo binding assay was developed using radio-labeled smoothened agonist for compound competition. Table 9 lists the IC50 for displacement of a small molecule agonist of Smoothened determined in a filter binding format for the mouse and human Smoothened receptor.
# Gli-luciferase activity = assay: Reporter gene assay (RGA) in TMHh12 cells, antagonism of Gli-luciferase activity in the presence of a Smo agonist; type: cell-based
# Experimental: Activity of the compounds was evaluated using a reporter gene assay (RGA) in TMHh12 cells.
# [2] = target: mouse Smoothened receptor (Mus musculus, UniProt P56726); assay: Smo binding assay, displacement of radio-labeled smoothened agonist, filter binding format (mouse); details: displacement of small molecule agonist of Smoothened, read-out: Mouse Smo bdg., IC50
# From the text: A Smo binding assay was developed using radio-labeled smoothened agonist for compound competition.
# [3] = 25 nM small molecule Smo agonist, read-out: RGA (25 nM Smo agonist) IC50
# [4] = read-out: RGA (1 nM Smo agonist) IC50, 1 nM small molecule Smo agonist
# Chain of mouse Smoothened receptor (P56726 33-793): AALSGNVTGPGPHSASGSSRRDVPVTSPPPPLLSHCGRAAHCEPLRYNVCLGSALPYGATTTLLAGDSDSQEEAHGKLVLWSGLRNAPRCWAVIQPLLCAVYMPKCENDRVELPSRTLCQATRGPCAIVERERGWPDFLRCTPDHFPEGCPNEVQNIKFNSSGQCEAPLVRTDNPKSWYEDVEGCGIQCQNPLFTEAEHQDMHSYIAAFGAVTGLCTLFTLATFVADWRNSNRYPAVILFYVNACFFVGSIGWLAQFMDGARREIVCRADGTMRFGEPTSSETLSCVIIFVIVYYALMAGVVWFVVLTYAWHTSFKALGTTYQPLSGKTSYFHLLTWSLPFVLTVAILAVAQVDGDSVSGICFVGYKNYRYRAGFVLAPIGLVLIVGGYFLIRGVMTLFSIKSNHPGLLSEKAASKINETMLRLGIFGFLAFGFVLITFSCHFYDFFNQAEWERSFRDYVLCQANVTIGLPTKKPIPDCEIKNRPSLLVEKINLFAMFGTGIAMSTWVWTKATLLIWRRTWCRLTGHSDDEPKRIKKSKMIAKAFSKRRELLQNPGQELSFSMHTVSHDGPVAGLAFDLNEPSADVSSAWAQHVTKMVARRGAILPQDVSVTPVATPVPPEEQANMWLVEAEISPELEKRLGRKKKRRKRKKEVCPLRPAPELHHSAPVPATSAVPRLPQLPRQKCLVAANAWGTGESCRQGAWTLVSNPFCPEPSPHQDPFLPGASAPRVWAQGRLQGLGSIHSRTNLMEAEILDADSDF
# Chain of human Smoothened receptor (Q99835 28-787): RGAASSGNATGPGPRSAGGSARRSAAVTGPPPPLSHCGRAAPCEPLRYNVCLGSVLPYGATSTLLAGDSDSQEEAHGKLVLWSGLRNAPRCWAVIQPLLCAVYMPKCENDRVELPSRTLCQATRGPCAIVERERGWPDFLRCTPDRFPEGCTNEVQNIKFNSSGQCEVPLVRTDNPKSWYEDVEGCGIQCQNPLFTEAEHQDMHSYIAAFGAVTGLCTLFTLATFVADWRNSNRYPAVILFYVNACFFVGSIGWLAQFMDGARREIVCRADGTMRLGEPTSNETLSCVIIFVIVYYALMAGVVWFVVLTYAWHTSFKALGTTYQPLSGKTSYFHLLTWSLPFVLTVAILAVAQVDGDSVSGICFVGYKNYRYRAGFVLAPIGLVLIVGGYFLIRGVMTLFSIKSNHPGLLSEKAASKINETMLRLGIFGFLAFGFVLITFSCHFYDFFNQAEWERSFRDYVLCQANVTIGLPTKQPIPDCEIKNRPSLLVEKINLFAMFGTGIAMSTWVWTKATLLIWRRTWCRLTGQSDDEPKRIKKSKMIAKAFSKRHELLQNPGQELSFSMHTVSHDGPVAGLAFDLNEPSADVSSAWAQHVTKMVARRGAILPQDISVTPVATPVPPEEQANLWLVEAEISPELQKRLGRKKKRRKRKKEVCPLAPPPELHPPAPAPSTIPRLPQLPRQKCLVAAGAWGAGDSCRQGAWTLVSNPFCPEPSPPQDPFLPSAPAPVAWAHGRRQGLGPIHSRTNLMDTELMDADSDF
smiles,measurement,setting,value
N#Cc1ccc(N2CCN(c3nnc(Cc4ccc(F)cc4)c4c3CCCC4)CC2)nc1 [Example 93b],IC50,[1],100 to 1000 nM
same,IC50,Gli-luciferase activity; [3],100 to 1000 nM
same,IC50,Gli-luciferase activity; [4],100 to 1000 nM
same,IC50,[2],100 to 1000 nM
NC(=O)c1ccc(N2CCN(c3nnc(Cc4ccccc4)c4ccccc34)CC2)nc1 [Example 53],IC50,[1],100 to 1000 nM
same,IC50,Gli-luciferase activity; [3],100 to 1000 nM
same,IC50,Gli-luciferase activity; [4],< 100 nM
same,IC50,[2],100 to 1000 nM
"N#Cc1ccc(N2CCN(c3cnc(Cc4ccccc4)c4ccccc34)CC2)nc1 [Example 79, 6-[4-(1-Benzyl-isoquinolin-4-yl)-piperazin-1-yl]-nicotinonitrile]",IC50,[1],1000 to 10000 nM
same,IC50,Gli-luciferase activity; [3],100 to 1000 nM
same,IC50,Gli-luciferase activity; [4],100 to 1000 nM
same,IC50,[2],100 to 1000 nM
"N#Cc1ccc(N2CCN(c3nnc(Cc4cccc(C(F)(F)F)c4)c4ccccc34)CC2)nc1 [Example 56, 6-{4-[4-(3-Trifluoromethyl-benzyl)-phthalazin-1-yl]-piperazin-1-yl}-nicotinonitrile]",IC50,[1],100 to 1000 nM
same,IC50,Gli-luciferase activity; [3],1000 to 10000 nM
same,IC50,Gli-luciferase activity; [4],< 100 nM
same,IC50,[2],< 100 nM
"CC(=O)NC(C)(C)c1ccc(N2CCN(c3nnc(Cc4ccccc4)c4ccccc34)CC2)nc1 [Example 162, N-(1-{6-[4-(4-Benzyl-phthalazin-1-yl)-piperazin-1-yl]-pyridin-3-yl}-1-methyl-ethyl)-acetamide]",IC50,[1],< 100 nM
same,IC50,Gli-luciferase activity; [3],< 100 nM
same,IC50,Gli-luciferase activity; [4],< 100 nM
same,IC50,[2],< 100 nM
Cc1cc(Cc2ccccc2)nnc1N1CCN(c2ccc(C(F)(F)F)cn2)CC1 [Example 88],IC50,[1],100 to 1000 nM
same,IC50,Gli-luciferase activity; [3],1000 to 10000 nM
same,IC50,Gli-luciferase activity; [4],< 100 nM
same,IC50,[2],100 to 1000 nM
N#Cc1ccc(N2CCN(c3nnc(Cc4ccc(C(F)(F)F)cc4)c4ccccc34)CC2)nc1 [Example 63],IC50,[1],100 to 1000 nM
same,IC50,Gli-luciferase activity; [3],1000 to 10000 nM
same,IC50,Gli-luciferase activity; [4],100 to 1000 nM
same,IC50,[2],100 to 1000 nM
"CC(O)c1ccc(N2CCN(c3nnc(Cc4ccccc4)c4ccccc34)CC2)nc1 (stereo not drawn) [Example 163, 1-{6-[4-(4-Benzyl-phthalazin-1-yl)-piperazin-1-yl]-pyridin-3-yl}-ethanol]",IC50,[1],< 100 nM
same,IC50,Gli-luciferase activity; [3],100 to 1000 nM
same,IC50,Gli-luciferase activity; [4],< 100 nM
same,IC50,[2],< 100 nM
CN1CCN(C(=O)c2ccc(N3CCN(c4nnc(Cc5ccccc5)c5ccccc45)CC3)nc2)CC1 [Example 54i],IC50,[1],1000 to 10000 nM
same,IC50,Gli-luciferase activity; [3],1000 to 10000 nM
same,IC50,Gli-luciferase activity; [4],100 to 1000 nM
same,IC50,[2],100 to 1000 nM
"FC(F)(F)c1ccc(N2CCN(c3nnc(Cc4ccccc4)c4[nH]cnc34)CC2)nc1 [Example 247, 7-Benzyl-4-[4-(5-trifluoromethyl-pyridin-2-yl)-piperazin-1-yl]-1H-imidazo[4,5-d]pyridazine]",IC50,[1],100 to 1000 nM
same,IC50,Gli-luciferase activity; [3],1000 to 10000 nM
same,IC50,Gli-luciferase activity; [4],1000 to 10000 nM
same,IC50,[2],100 to 1000 nM
CN(Cc1ccc(N2CCN(c3nnc(Cc4ccccc4)c4ccccc34)CC2)nc1)C1CCOCC1 [Example 226],IC50,[1],100 to 1000 nM
same,IC50,Gli-luciferase activity; [3],100 to 1000 nM
same,IC50,Gli-luciferase activity; [4],< 100 nM
same,IC50,[2],< 100 nM
CC(C)(O)c1ccc(C2CCN(c3nnc(Cc4ccccc4)c4ccccc34)CC2)cc1 [Example 124],IC50,[1],100 to 1000 nM
same,IC50,Gli-luciferase activity; [3],1000 to 10000 nM
same,IC50,Gli-luciferase activity; [4],< 100 nM
same,IC50,[2],100 to 1000 nM
"N#Cc1ccc(N2CCN(c3ncc(Cc4ccccc4)c4ccccc34)CC2)nc1 [Example 83, 6-[4-(4-Benzyl-isoquinolin-1-yl)-piperazin-1-yl]-nicotinonitrile]",IC50,[1],1000 to 10000 nM
same,IC50,Gli-luciferase activity; [3],100 to 1000 nM
same,IC50,Gli-luciferase activity; [4],100 to 1000 nM
same,IC50,[2],1000 to 10000 nM
N#Cc1ccc(N2CCN(c3nnc(Cc4cccc(Cl)c4)c4ccccc34)CC2)nc1 [Example 60],IC50,[1],100 to 1000 nM
same,IC50,Gli-luciferase activity; [3],100 to 1000 nM
same,IC50,Gli-luciferase activity; [4],< 100 nM
same,IC50,[2],< 100 nM
CCOC(=O)c1ccc(N2CCN(c3nnc(Cc4ccc(Cl)cc4Cl)c4ccccc34)CC2)nc1 [Example 186],IC50,[1],< 100 nM
same,IC50,Gli-luciferase activity; [3],100 to 1000 nM
same,IC50,Gli-luciferase activity; [4],100 to 1000 nM
same,IC50,[2],< 100 nM
c1ccc(Cc2nnc(N3CCC(c4c[nH]c5ccccc45)CC3)c3ccccc23)cc1 [Example 113],IC50,[1],100 to 1000 nM
same,IC50,Gli-luciferase activity; [3],1000 to 10000 nM
same,IC50,Gli-luciferase activity; [4],100 to 1000 nM
same,IC50,[2],100 to 1000 nM
CC(C)(O)c1cnc(N2CCN(c3nnc(Cc4ccccc4)c4ccccc34)CC2)nc1C(F)(F)F [Example 149],IC50,[1],< 100 nM
same,IC50,Gli-luciferase activity; [3],< 100 nM
same,IC50,Gli-luciferase activity; [4],< 100 nM
same,IC50,[2],< 100 nM
N#Cc1ccc(Cc2nnc(N3CCN(c4ccc(C#N)cn4)CC3)c3ccccc23)cc1 [Example 57],IC50,[1],< 100 nM
same,IC50,Gli-luciferase activity; [3],100 to 1000 nM
same,IC50,Gli-luciferase activity; [4],< 100 nM
same,IC50,[2],< 100 nM
CC(C)(O)c1cnc(N2CCN(c3nnc(Cc4ccccc4)c4ccccc34)CC2)nc1 [Example 151],IC50,[1],< 100 nM
same,IC50,Gli-luciferase activity; [3],100 to 1000 nM
same,IC50,Gli-luciferase activity; [4],< 100 nM
same,IC50,[2],< 100 nM
CCC(=O)NCc1ccc(N2CCN(c3nnc(Cc4ccccc4)c4ccccc34)CC2)cc1 [Example 78a],IC50,[1],100 to 1000 nM
same,IC50,Gli-luciferase activity; [3],100 to 1000 nM
same,IC50,Gli-luciferase activity; [4],< 100 nM
same,IC50,[2],100 to 1000 nM
O=C(c1cnc(N2CCN(c3nnc(Cc4ccccc4)c4ccccc34)CC2)nc1)N1CCOCC1 [Example 54bb],IC50,[1],100 to 1000 nM
same,IC50,Gli-luciferase activity; [3],100 to 1000 nM
same,IC50,Gli-luciferase activity; [4],< 100 nM
same,IC50,[2],< 100 nM
CCOC(=O)c1ccc(N2CCN(c3nnc(Cc4ccc(F)cc4)c4ccccc34)CC2)nc1 [Example 183],IC50,[1],< 100 nM
same,IC50,Gli-luciferase activity; [3],1000 to 10000 nM
same,IC50,Gli-luciferase activity; [4],100 to 1000 nM
same,IC50,[2],< 100 nM
COc1ccc(Cc2nnc(N3CCN(c4ccc(C#N)cn4)CC3)c3ccccc23)cc1OC [Example 58],IC50,[1],1000 to 10000 nM
same,IC50,Gli-luciferase activity; [4],1000 to 10000 nM
same,IC50,[2],1000 to 10000 nM
N#Cc1ccc(N2CCC(c3cn(Cc4ccccc4)c4ccccc34)CC2)nc1 [Example 100],IC50,[1],100 to 1000 nM
same,IC50,Gli-luciferase activity; [3],1000 to 10000 nM
same,IC50,Gli-luciferase activity; [4],100 to 1000 nM
same,IC50,[2],100 to 1000 nM
Cc1cc(Cc2ccc(F)cc2)nnc1N1CCN(c2ccc(C#N)cn2)CC1 [Example 84],IC50,[1],100 to 1000 nM
same,IC50,Gli-luciferase activity; [3],1000 to 10000 nM
same,IC50,Gli-luciferase activity; [4],< 100 nM
same,IC50,[2],100 to 1000 nM
COc1ccc(Cc2nnc(N3CCN(c4ccc(C#N)cn4)CC3)c3ccccc23)cc1 [Example 64],IC50,[1],100 to 1000 nM
same,IC50,Gli-luciferase activity; [3],1000 to 10000 nM
same,IC50,Gli-luciferase activity; [4],< 100 nM
same,IC50,[2],100 to 1000 nM
"CN(C)Cc1ccc(N2CCN(c3nnc(Cc4ccccc4)c4ccccc34)CC2)nc1 [Example 217, {6-[4-(4-Benzyl-phthalazin-1-yl)-piperazin-1-yl]-pyridin-3-ylmethyl}-dimethyl-amine]",IC50,[1],1000 to 10000 nM
same,IC50,Gli-luciferase activity; [3],1000 to 10000 nM
same,IC50,Gli-luciferase activity; [4],< 100 nM
same,IC50,[2],1000 to 10000 nM
CCOC(=O)c1ccc(N2CCN(c3nnc(Cc4ccc(F)cc4F)c4ccccc34)[C@@H](C)C2)nc1 [Example 187],IC50,[1],< 100 nM
same,IC50,Gli-luciferase activity; [3],100 to 1000 nM
same,IC50,Gli-luciferase activity; [4],< 100 nM
same,IC50,[2],< 100 nM
N#Cc1ccc(N2CCN(c3nnc(CCc4ccccc4)c4ccccc34)CC2)nc1 [Example 61],IC50,[1],100 to 1000 nM
same,IC50,Gli-luciferase activity; [3],1000 to 10000 nM
same,IC50,Gli-luciferase activity; [4],100 to 1000 nM
same,IC50,[2],< 100 nM
OC(c1ccc(N2CCN(c3nnc(Cc4ccccc4)c4ccccc34)CC2)nc1)C1CCCC1 (stereo not drawn) [Example 221],IC50,[1],< 100 nM
same,IC50,Gli-luciferase activity; [3],100 to 1000 nM
same,IC50,Gli-luciferase activity; [4],< 100 nM
same,IC50,[2],< 100 nM
O=C(c1ccc(C(F)(F)F)cc1)N1CCC(c2cn(Cc3ccccc3)c3ccccc23)CC1 [Example 105],IC50,[1],1000 to 10000 nM
same,IC50,Gli-luciferase activity; [3],10000 to 40000 nM
same,IC50,Gli-luciferase activity; [4],1000 to 10000 nM
same,IC50,[2],1000 to 10000 nM
Cc1cc(Cc2ccc(Cl)cc2)nnc1N1CCN(c2ccc(C#N)cn2)CC1 [Example 92],IC50,[1],100 to 1000 nM
same,IC50,Gli-luciferase activity; [3],1000 to 10000 nM
same,IC50,Gli-luciferase activity; [4],100 to 1000 nM
same,IC50,[2],100 to 1000 nM
Fc1cc(Cl)cnc1N1CCN(c2nnc(Cc3ccccc3)c3ccccc23)CC1 [Example 49],IC50,[1],100 to 1000 nM
same,IC50,Gli-luciferase activity; [3],100 to 1000 nM
same,IC50,Gli-luciferase activity; [4],< 100 nM
same,IC50,[2],100 to 1000 nM
FC1(F)CCN(Cc2ccc(N3CCN(c4nnc(Cc5ccccc5)c5ccccc45)CC3)nc2)CC1 [Example 228],IC50,[1],< 100 nM
same,IC50,Gli-luciferase activity; [3],100 to 1000 nM
same,IC50,Gli-luciferase activity; [4],100 to 1000 nM
same,IC50,[2],< 100 nM
